According to patent US20230146795A1, “ENHANCEMENT OF ANTI-TUMOR ACTIVITY OF SHP2 INHIBITOR PYRIMIDINONE IN COMBINATION WITH NOVEL CANCER MEDICINES IN CANCERS” (TAIHO PHARMACEUTICAL CO., LTD., priority 2020, published 2023):
Values belong to the molecule of their own block, whether it stands above or below them.

Tests used:
SHP2 = target: T1, SHP2 (Homo sapiens, UniProt Q06124); assay: SHP2 biochemical assay (DiFMUP conversion); conditions: 10 pM SHP2, 0.25 μM pIRS1 peptide, 50 μM DiFMUP
T1 sequence (Q06124 1-593): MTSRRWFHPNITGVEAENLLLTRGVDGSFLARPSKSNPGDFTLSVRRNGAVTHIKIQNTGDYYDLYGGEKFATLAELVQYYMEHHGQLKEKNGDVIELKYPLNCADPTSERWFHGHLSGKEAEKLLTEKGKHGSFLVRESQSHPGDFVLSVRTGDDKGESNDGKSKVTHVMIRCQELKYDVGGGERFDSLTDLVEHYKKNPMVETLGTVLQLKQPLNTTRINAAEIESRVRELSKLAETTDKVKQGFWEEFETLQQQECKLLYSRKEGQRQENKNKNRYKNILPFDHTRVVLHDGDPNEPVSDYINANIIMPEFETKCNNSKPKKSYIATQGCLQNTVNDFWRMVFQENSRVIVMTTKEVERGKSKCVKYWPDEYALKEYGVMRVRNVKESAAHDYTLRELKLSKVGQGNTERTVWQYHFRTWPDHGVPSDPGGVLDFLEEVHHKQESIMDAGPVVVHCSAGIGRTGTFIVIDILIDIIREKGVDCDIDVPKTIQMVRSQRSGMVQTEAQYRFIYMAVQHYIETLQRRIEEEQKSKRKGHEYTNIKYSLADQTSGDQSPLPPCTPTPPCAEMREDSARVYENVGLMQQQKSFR
Protocol: (1) SHP2 Biochemical Assay SHP2 Activity was Monitored by Measuring the Conversion of the Surrogate Substrate 6,8-Difluoromethylumbelliferyl Phosphate (DiEMUP) to the Fluorescent Product, 6,8-Difluoromethylumbelliferone (DiFMU).
SHP2 was pre-incubated with test compounds and the activating peptide pIRS1 (H2N-LN(pY) IDLDLV-(PEG) 8-LST(pY)ASINFQK-amide) for 30 min, prior to addition of the 6,8-difluoromethylumbelliferyl phosphate (DiEMUP), (Thermo Fisher D6567). Final assay concentrations were 10 pM SHP2, 0.25 μM pIRS1 peptide, 50 μM DiFMUP, 25 mM Bis-Tris propane, pH 7.0, 150 mM NaCl, 0.05% (v/v) Tween-20, 0.5 mM TCEP and 5% (v/v) DMSO. Rates of reaction were then measured over 30 min by monitoring fluorescence on a BMG Pherastar reader at excitation 360 nm/emission 450 nm. IC50 values were calculated in singlicate from the normalized dose-response plots using four parameter logistic curve fit. The Experiment for each compound was carried out in one time or multiple times, and the IC50 values were shown as a single value (for a compound measured in a single experiment) or an average value (for a compound measured in multiple experiments).

NCI-H358 = assay: Anti-proliferation assay (CellTiter-Glo 2.0), combination index, NCI-H358; format: cell-based
In short: (§1)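 Cells were seeded at 500 cells/well in medium with 10% FBS and exposed to agents at 8 concentrations including 0 nM, for 3 days at 37° C under 5% CO2. Survival was read by CellTiter-Glo 2.0 luminescence, and combination index was determined at each combined concentration.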

MKN45 = assay: Anti-proliferation assay (CellTiter-Glo 2.0), combination index, MKN45; format: cell-based
In short: as §1

MV-4-11 = assay: Anti-proliferation assay (CellTiter-Glo 2.0), combination index, MV-4-11; format: cell-based
Protocol: (§2) Cell lines were obtained from ATCC or Health Science Research Resources Bank.
(§3) 384 well culture plate (781086, Greiner Bio-One International) was used for cell survival rate measurement assay. Each cell lines were collected by ordinary method, then suspended in indicated medium containing 10% fetal bovine serum in table 3. The number of cells seeded per well was set to 500 cells/20 μL. After incubation at 37° C. for 24 hours under 5% CO2, Compound 1 and additional compound having an antitumor effect or a vehicle (DMSO) was added to each well by using D300e Digital Dispenser (Tecan). The concentration of Compound 1 was set to 10 concentrations. The concentration of each anti-cancer reagents set to 8 concentrations including 0 nM. After adding the medicine to the cells, the cells were further incubated at 37° C. for 3 days under 5% CO2. Cell survival rates were calculated by adding 20 μL of CellTiter-Glo(registered trademark) 2. 0 (Promega) solution to each well, incubating the cells at room temperature for 10 minutes, and then measuring the chemiluminescence intensity of each well using a plate reader (ARVO).
(§4) A combination index (CI) value at each combined concentration of the medicines was determined.

NCI-H23 = assay: Anti-proliferation assay (CellTiter-Glo 2.0), combination index, NCI-H23; format: cell-based
Protocol: as §2
Each cell lines were collected by ordinary method, then suspended in indicated medium containing 10% fetal bovine serum in table 3. The number of cells seeded per well was set to 500 cells/20 μL. […] The concentration of each anti-cancer reagents set to 8 concentrations including 0 nM. After adding the medicine to the cells, the cells were further incubated at 37° C. for 3 days under 5% CO2. Cell survival rates were calculated by adding 20 μL of CellTiter-Glo(registered trademark) 2. 0 (Promega) solution to each well, incubating the cells at room temperature for 10 minutes, and then measuring the chemiluminescence intensity of each well using a plate reader (ARVO).
as §4

RMG-I = assay: Anti-proliferation assay (CellTiter-Glo 2.0), combination index, RMG-I; format: cell-based
Protocol: as §2, §3, §4

[1] = Compound 1 123 + combination drug 370 nmol/L (1:3)
[2] = Compound 1 370 + combination drug 1110 nmol/L (1:3)
[3] = Compound 1 1110 + combination drug 3330 nmol/L (1:3)
[4] = Compound 1 3330 + combination drug 10000 nmol/L (1:3)
[5] = Compound 1 1.52 + combination drug 41.2 nmol/L (1:27)
[6] = Compound 1 4.57 + combination drug 123 nmol/L (1:27)
[7] = Compound 1 13.7 + combination drug 370 nmol/L (1:27)
[8] = Compound 1 41.2 + combination drug 1110 nmol/L (1:27)
[9] = Compound 1 123 + combination drug 3330 nmol/L (1:27)
[10] = Compound 1 370 + combination drug 10000 nmol/L (1:27)
[11] = Compound 1 1.52 + combination drug 123 nmol/L (1:81)
[12] = Compound 1 4.57 + combination drug 370 nmol/L (1:81)
[13] = Compound 1 13.7 + combination drug 1110 nmol/L (1:81)
[14] = Compound 1 41.2 + combination drug 3330 nmol/L (1:81)
[15] = Compound 1 123 + combination drug 10000 nmol/L (1:81)
[16] = Compound 1 41.2 + combination drug 123 nmol/L (1:3)

IC50 (SHP2): 1.5 nM
SMILES: Cn1nc2ccc(-c3c[nH]c4nc(N5C[C@H]6CC[C@@H]5[C@@H]6N)n(C)c(=O)c34)c(Cl)c2c1Cl [Compound 5, 2-((1R,4R,7R)-7-amino-2-azabicyclo[2.2.1]heptan-2-yl)-5-(3,4-dichloro-2-methyl-2H-indazol-5-yl)-3-methyl-3,7-dihydro-4H-pyrrolo[2,3-d]pyrimidin-4-one]

SMILES: Cn1nc2ccc(-c3c[nH]c4nc(N5[C@H]6CC[C@@H]5[C@H](N)C6)n(C)c(=O)c34)c(F)c2c1Cl [Compound 6, 2-((1R,2R,4S)-2-amino-7-azabicyclo[2.2.1]heptan-7-yl)-5-(3-chloro-4-fluoro-2-methyl-2H-indazol-5-yl)-3-methyl-3,7-dihydro-4H-pyrrolo[2,3-d]pyrimidin-4-one]
IC50 (SHP2): 2.8 nM

SMILES: CCn1cc2c(Cl)c(-c3c[nH]c4nc(N5[C@H]6CC[C@@H]5[C@H](N)C6)n(C)c(=O)c34)ccc2n1 [Compound 7, 2-((1R,2R,4S)-2-amino-7-azabicyclo[2.2.1]heptan-7-yl)-5-(4-chloro-2-ethyl-2H-indazol-5-yl)-3-methyl-3,7-dihydro-4H-pyrrolo[2,3-d]pyrimidin-4-one]
IC50 (SHP2): 3.3 nM

SMILES: NC1(c2ccc(-c3nc4ccn5c(=O)[nH]nc5c4cc3-c3ccccc3)cc2)CCC1 [MK-2206, 8-[4-(1-aminocyclobutyl)phenyl]-9-phenyl-1,2,4-triazolo[3,4-f][1,6]naphthyridin-3(2H)-one]
CI (NCI-H358; [1]): 0.477
Fa (NCI-H358; [1]): 0.2532
CI (NCI-H358; [2]): 0.204
Fa (NCI-H358; [2]): 0.4838
CI (NCI-H358; [3]): 0.301
Fa (NCI-H358; [3]): 0.5761
CI (NCI-H358; [4]): 0.213
Fa (NCI-H358; [4]): 0.7446
CI (MKN45; [5]): 0.315
Fa (MKN45; [5]): 0.1506
CI (MKN45; [6]): 0.564
Fa (MKN45; [6]): 0.1981
CI (MKN45; [7]): 0.408
Fa (MKN45; [7]): 0.3872
CI (MKN45; [8]): 0.383
Fa (MKN45; [8]): 0.5869
CI (MKN45; [9]): 0.420
Fa (MKN45; [9]): 0.7489
CI (MKN45; [10]): 0.608
Fa (MKN45; [10]): 0.8398
Description (combinatory effect by CI) (MKN45; Compound 1:combination drug molar ratio 1:27): Synergy (0.3-0.7)
CI (MV-4-11; [11]): 0.315
Fa (MV-4-11; [11]): 0.2639
CI (MV-4-11; [12]): 0.520
Fa (MV-4-11; [12]): 0.3899
CI (MV-4-11; [13]): 0.446
Fa (MV-4-11; [13]): 0.6851
CI (MV-4-11; [14]): 0.318
Fa (MV-4-11; [14]): 0.9006
CI (MV-4-11; [15]): 0.137
Fa (MV-4-11; [15]): 0.9846
CI (NCI-H23; [16]): 0.783
Fa (NCI-H23; [16]): 0.1015
CI (NCI-H23; [1]): 0.265
Fa (NCI-H23; [1]): 0.2110
CI (NCI-H23; [2]): 0.232
Fa (NCI-H23; [2]): 0.3486
CI (NCI-H23; [3]): 0.295
Fa (NCI-H23; [3]): 0.5074
CI (NCI-H23; [4]): 0.340
Fa (NCI-H23; [4]): 0.7061
CI (RMG-I; [11]): 0.724
Fa (RMG-I; [11]): 0.1204
CI (RMG-I; [12]): 0.398
Fa (RMG-I; [12]): 0.2545
CI (RMG-I; [13]): 0.314
Fa (RMG-I; [13]): 0.4133
CI (RMG-I; [14]): 0.320
Fa (RMG-I; [14]): 0.5593
CI (RMG-I; [15]): 0.353
Fa (RMG-I; [15]): 0.6868
Description (combinatory effect by CI) (RMG-I; Compound 1:combination drug molar ratio 1:81): Synergy (0.3-0.7)
